What was measured:
Format in all cases: cell-based
IL-1β = IL-1β inhibition assay, LPS-induced PBMCs or CD14+ monocytes, Meso Scale; conditions: 100 ng/mL LPS 18-24 h
Experimental: (§1) Either frozen primary blood mononuclear cells (PBMCs) or frozen CD14+ mobilized peripheral blood monocytes were purchased from AllCells (PB003F, Normal Peripheral Blood MNC (Alameda, Calif.)). Cells were quick thawed, washed 1-time with RPMI-1640 (10% FBS/1% Pen-Strep) and plated in 96 well plates at 200,000 cells per well. Cells were pretreated with DMSO only or with the indicated compound for 1 h and then induced with 100 ng/mL lipopolysaccharide (LPS) for 18-24 h. The supernatant was analyzed for IL-1β, IL-6, and TNFα, using Meso Scale assay according to manufacturer's protocol. The negative control wells were treated with DMSO.

MOLM-13 cells = test: MOLM-13 cell viability assay (CellTiter-Glo 2, 3 days, 2500 cells/well); conditions: Homo sapiens, MOLM-13, 72 h, percentage of DMSO control
Experimental: MOLM-13 cells were cultured in RPMI 1640 media supplemented with 10% fetal bovine serum, streptomycin and penicillin, and were plated in white walled 96-well plates at 2500 cells/well. Cells were incubated in DMSO (control) or the indicated compound for 3 days at 37° C. and 5% CO2. Following the incubation period, 100 μL of CellTiterGlow2 (CTG2) reagent (CellTiter-Glo®2 Luminescent Cell Viability Assay, Promega (Madison, Wis.)) was added to each well. Following a 10 minutes incubation with shaking, luminescence was measured using the EnVision Multimode plate reader.
The MOLM-13 cell viability values, measured as percentages of the DMSO control, are reported in Table 8 as “A”, “B”, “C”, or “D.” “A” represents a % viability value of less than 40% (value<40%). “B” represents a % viability value of equal to or more than 40% and less than 60% (40%≤value<60%). “C” represents a % viability value of equal to or more than 60% and less than 90% (60%≤value<90%). “D” represents a % viability value of equal or more than 90% (value≥90%).

GSPT1 = target: T1, GSPT1 (Homo sapiens, UniProt P15170+Q96SW2); test: Western blot GSPT1 degradation assay in MV-4-11 cells; conditions: 1 μM, MV-4-11 cells, 6-8 hours
T1 construct: whole cell protein extracts were separated on 4-12% SDS-polyacrylamide gels; endogenous in cells; host or cells: MV-4-11
T1 sequence (P15170 whole entry): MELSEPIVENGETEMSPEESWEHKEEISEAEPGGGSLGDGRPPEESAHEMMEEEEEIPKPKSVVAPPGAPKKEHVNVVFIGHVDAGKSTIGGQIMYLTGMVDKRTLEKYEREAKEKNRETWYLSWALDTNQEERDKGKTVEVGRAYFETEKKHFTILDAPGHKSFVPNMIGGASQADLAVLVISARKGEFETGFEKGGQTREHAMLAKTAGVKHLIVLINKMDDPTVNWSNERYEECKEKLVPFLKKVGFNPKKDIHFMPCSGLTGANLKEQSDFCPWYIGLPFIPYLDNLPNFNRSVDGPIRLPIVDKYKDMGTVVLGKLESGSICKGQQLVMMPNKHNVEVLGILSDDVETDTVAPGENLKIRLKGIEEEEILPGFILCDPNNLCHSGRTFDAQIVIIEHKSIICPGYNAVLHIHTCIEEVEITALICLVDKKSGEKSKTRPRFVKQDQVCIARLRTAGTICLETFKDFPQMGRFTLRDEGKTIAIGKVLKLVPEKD
T1 sequence (Q96SW2 whole entry): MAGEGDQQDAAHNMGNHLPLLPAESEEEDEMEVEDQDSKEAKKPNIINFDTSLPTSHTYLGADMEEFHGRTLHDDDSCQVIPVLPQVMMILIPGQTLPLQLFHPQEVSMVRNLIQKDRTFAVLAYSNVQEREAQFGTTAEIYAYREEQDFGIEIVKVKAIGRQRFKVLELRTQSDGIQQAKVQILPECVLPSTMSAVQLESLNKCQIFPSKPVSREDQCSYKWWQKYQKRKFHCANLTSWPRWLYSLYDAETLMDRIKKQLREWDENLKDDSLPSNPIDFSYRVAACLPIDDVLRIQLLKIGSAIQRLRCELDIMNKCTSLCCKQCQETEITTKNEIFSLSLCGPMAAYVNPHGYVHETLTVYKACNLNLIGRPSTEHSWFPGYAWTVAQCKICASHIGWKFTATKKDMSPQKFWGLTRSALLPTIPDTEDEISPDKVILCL
T1 sequence (Q16531 whole entry partner): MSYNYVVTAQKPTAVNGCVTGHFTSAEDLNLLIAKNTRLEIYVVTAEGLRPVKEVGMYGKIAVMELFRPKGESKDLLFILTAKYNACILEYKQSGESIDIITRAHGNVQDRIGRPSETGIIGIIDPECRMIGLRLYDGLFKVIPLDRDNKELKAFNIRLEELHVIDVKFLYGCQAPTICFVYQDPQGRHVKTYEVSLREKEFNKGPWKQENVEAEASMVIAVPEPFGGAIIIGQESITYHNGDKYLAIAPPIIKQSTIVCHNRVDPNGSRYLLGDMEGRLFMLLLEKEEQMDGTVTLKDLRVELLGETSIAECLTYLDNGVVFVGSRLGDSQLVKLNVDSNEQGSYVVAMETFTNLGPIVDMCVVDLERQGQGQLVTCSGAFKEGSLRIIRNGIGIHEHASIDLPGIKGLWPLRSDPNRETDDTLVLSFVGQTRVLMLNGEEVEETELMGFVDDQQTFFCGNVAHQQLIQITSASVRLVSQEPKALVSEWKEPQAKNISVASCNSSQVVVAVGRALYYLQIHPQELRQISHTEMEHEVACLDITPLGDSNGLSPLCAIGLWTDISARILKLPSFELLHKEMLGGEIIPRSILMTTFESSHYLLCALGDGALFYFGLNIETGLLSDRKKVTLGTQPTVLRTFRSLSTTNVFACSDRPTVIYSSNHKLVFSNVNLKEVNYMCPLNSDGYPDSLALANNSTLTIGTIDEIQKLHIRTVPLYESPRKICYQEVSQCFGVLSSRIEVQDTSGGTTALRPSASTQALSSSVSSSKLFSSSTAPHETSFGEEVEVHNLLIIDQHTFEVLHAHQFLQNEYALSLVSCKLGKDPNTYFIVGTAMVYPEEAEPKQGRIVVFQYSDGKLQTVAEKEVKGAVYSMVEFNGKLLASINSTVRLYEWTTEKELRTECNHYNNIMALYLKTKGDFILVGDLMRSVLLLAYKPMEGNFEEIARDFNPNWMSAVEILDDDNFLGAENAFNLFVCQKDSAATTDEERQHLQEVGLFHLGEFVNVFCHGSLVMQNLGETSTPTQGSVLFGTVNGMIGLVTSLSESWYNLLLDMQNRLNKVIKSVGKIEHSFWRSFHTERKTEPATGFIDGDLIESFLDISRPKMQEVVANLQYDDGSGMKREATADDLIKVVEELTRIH
Experimental: (§2) MV-4-11 cells were grown in RPMI 1640 media supplemented with 10% fetal bovine serum, streptomycin and penicillin.
(§3) Cells were cultured at approximately 10^6 cells per mL and incubated in DMSO or the indicated compound for 6-8 hours. Whole cell extracts were prepared using RIPA buffer according to manufacturer's protocol (Pierce). Briefly, 3×10^6 cells were washed once in PBS, the cell pellets were resuspended in RIPA buffer and allowed to incubate for 15 minutes on ice. Cells debris was removed by centrifugation and the cleared whole cell lysates were transferred to new tubes for further analysis.
(§4) For Western blot analysis, whole cell protein extracts were separated on 4-12% SDS-polyacrylamide gels, transferred to nitrocellulose and probed with the indicated primary antibodies. Membranes were subsequently washed and probed with the appropriate IRDye secondary antibodies (LI-COR). The signal was detected using the Odyssey Imaging System (LI-COR).
(§5) The following antibodies were used in these studies: Anti-eRF3/GSPT1: Abcam, ab126090 (Cambridge, Mass.); Anti-Ikaros: Abcam, ab191394 (Cambridge, Mass.); Anti-CK1α: Abcam, ab108296 (Cambridge, Mass.); β-actin (8H10D10) mouse monoclonal antibody: Cell Signaling Technology, #3700 (Danvers, Mass.); IRDye 680RD Goat anti-rabbit antibody: LI-COR, 926-68071 (Lincoln, Nebr.); IRDye 800CW Goat anti-mouse antibody: LI-COR, 926-32210 (Lincoln, Nebr.).
(§6) In each of Tables 1-3, the % degradation values are reported as “A”, “B”, “C”, or “D.” “A” represents a % degradation value of less than 25% (value<25%); “B” represents a % degradation value of equal to or more than 25% and less than 50% (25%≤value<50%); “C” represents a % degradation value of equal to or more than 50% and less than 75% (50%≤value<75%); and “D” represents a % degradation value of equal to or more than 75% (value≥75%).

IL-2 = IL-2 fold-change assay, anti-CD3 stimulated PBMCs, Mesoscale; conditions: Homo sapiens, PBMC, 24 h, fold difference from the DMSO control
Experimental: For the IL-2 analysis, 96 well plates were precoated with 1 μg/mL anti-human CD3 antibody (OKT3, eBioscience Inc., San Diego, Calif.). After washing with PBS, the indicated compound was added (50 μL/well) followed by PBMCs diluted at 3-4 million cells/mL (150 μL/well). Plates were incubated for 24 h and the supernatants collected for Mesoscale IL-2 analysis. IL-2 activity is measured as fold difference from the DMSO control.
In Table 7, the fold-change values are reported as “A”, “B”, “C”, or “D”. “A” represents a fold-change value of equal to or less than 1 (value≤1); “B” represents a fold-change value of more than 1 and equal to or less than 2 (1<value≤2); “C” represents a fold-change value of more than 2 and equal to or less than 3 (2<value≤3); and “D” represents a fold-change value of more than 3 (value>3).

TNFα = test: TNF-α inhibition assay, LPS-induced PBMCs or CD14+ monocytes, Meso Scale; conditions: 100 ng/mL LPS 18-24 h
Experimental: as §1

IKAROS = target: T2, IKAROS (Homo sapiens, UniProt Q13422+Q96SW2); test: Western blot IKAROS degradation assay in MV-4-11 cells; conditions: 6-8 hours
T2 construct: endogenous in cells; host or cells: MV-4-11
T2 sequence (Q13422 whole entry): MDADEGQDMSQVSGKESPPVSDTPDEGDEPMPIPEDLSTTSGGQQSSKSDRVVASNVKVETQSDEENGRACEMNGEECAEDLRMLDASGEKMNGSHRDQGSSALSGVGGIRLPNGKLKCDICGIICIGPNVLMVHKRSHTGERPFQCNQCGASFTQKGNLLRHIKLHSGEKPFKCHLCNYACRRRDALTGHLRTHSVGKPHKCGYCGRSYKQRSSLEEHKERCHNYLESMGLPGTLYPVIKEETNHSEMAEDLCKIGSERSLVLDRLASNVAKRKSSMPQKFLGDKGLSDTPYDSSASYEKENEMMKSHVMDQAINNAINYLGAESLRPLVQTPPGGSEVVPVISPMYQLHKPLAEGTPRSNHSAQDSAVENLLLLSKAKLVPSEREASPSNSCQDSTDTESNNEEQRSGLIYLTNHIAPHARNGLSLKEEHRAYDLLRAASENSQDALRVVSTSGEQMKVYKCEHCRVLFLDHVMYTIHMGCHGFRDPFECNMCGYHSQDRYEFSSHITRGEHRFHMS
T2 sequence (Q96SW2 whole entry): as the sequence (Q96SW2 whole entry) above
T2 sequence (Q16531 whole entry partner): as the sequence (Q16531 whole entry partner) above
Experimental: as §2, §3, §4, §5, §6

CK1α = target: T3, CK1α (Homo sapiens, UniProt P48729+Q96SW2); test: Western blot CK1α degradation assay in MV-4-11 cells; conditions: 6-8 hours
T3 construct: endogenous in cells; host or cells: MV-4-11
T3 sequence (P48729 whole entry): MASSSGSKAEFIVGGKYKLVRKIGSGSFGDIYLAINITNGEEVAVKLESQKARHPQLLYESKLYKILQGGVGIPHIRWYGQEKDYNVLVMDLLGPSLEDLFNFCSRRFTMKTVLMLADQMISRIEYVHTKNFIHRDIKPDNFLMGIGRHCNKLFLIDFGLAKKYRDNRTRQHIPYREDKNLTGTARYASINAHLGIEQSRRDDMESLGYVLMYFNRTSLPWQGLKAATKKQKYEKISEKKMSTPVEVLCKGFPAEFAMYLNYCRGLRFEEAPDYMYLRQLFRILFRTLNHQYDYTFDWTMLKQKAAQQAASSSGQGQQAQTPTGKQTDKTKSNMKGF
T3 sequence (Q96SW2 whole entry): as the sequence (Q96SW2 whole entry) above
T3 sequence (Q16531 whole entry partner): as the sequence (Q16531 whole entry partner) above
Experimental: as §2, §3, §4, §5, §6

| SMILES | inhibition at 1 µM (IL-1β) | viability at 1 µM (MOLM-13 cells) | GSPT1 % Degradation at 1 μM (GSPT1) | fold induction at 1 µM (IL-2) | inhibition at 1 µM (TNFα) | IKAROS % Degradation at 1 μM (IKAROS) | CK1α % Degradation at 1 μM (CK1α) |
| --- | --- | --- | --- | --- | --- | --- | --- |
| Cc1ccc(NCC(=O)NCc2scc3c2CN(C2CCC(=O)NC2=O)C3=O)cc1Cl (centres unmarked) [Compound 2, 2-((3-chloro-4-methylphenyl)amino)-N-((5-(2,6-dioxopiperidin-3-yl)-4-oxo-5,6-dihydro-4H-thieno[3,4-c]pyrrol-1-yl)methyl)acetamide] | > 75% | > 90% | C (a % degradation value of equal to or more than 50% and less than 75% (50%≤value<75%)) | 1 to 2 | 50 to 75% | D (a % degradation value of equal to or more than 75% (value≥75%)) | – |
| Cc1ccc(NCC(=O)NCc2scc3c2CN(C2CCC(=O)NC2=O)C3=O)cc1N(C)C (centres unmarked) [Compound 4, 2-((3-(dimethylamino)-4-methylphenyl)amino)-N-((5-(2,6-dioxopiperidin-3-yl)-4-oxo-5,6-dihydro-4H-thieno[3,4-c]pyrrol-1-yl)methyl)acetamide] | 50 to 75% | > 90% | B (a % degradation value of equal to or more than 25% and less than 50% (25%≤value<50%)) | 2 to 3 | 50 to 75% | B (a % degradation value of equal to or more than 25% and less than 50% (25%≤value<50%)) | – |
| Cc1ccc(NCC(=O)NCc2cc3c(s2)CN(C2CCC(=O)NC2=O)C3=O)cc1Cl (centres unmarked) [Compound 6, 2-((3-chloro-4-methylphenyl)amino)-N-((5-(2,6-dioxopiperidin-3-yl)-4-oxo-5,6-dihydro-4H-thieno[2,3-c]pyrrol-2-yl)methyl)acetamide] | < 30% | – | – | – | < 30% | – | – |
| Cc1ccc(NC(C)C(=O)NCc2scc3c2CN(C2CCC(=O)NC2=O)C3=O)cc1Cl (centres unmarked) [Compound 7, 2-((3-chloro-4-methylphenyl)amino)-N-((5-(2,6-dioxopiperidin-3-yl)-4-oxo-5,6-dihydro-4H-thieno[3,4-c]pyrrol-1-yl)methyl)propanamide] | > 75% | – | – | 2 to 3 | > 75% | – | – |
| CN(C)c1ccc(NCC(=O)NCc2scc3c2CN(C2CCC(=O)NC2=O)C3=O)cc1Cl (centres unmarked) [Compound 8, 2-((3-chloro-4-(dimethylamino)phenyl)amino)-N-((5-(2,6-dioxopiperidin-3-yl)-4-oxo-5,6-dihydro-4H-thieno[3,4-c]pyrrol-1-yl)methyl)acetamide] | > 75% | – | – | 1 to 2 | > 75% | – | – |
| O=C(CNc1ccc(CN2CCOCC2)cc1)NCc1scc2c1CN(C1CCC(=O)NC1=O)C2=O (centres unmarked) [Compound 9, N-((5-(2,6-dioxopiperidin-3-yl)-4-oxo-5,6-dihydro-4H-thieno[3,4-c]pyrrol-1-yl)methyl)-2-((4-(morpholinomethyl)phenyl)amino)acetamide] | 50 to 75% | – | – | 1 to 2 | 50 to 75% | – | – |
| O=C(CNc1cccc(CN2CCOCC2)c1)NCc1scc2c1CN(C1CCC(=O)NC1=O)C2=O (centres unmarked) [Compound 11, N-((5-(2,6-dioxopiperidin-3-yl)-4-oxo-5,6-dihydro-4H-thieno[3,4-c]pyrrol-1-yl)methyl)-2-((3-(morpholinomethyl)phenyl)amino)acetamide] | 30 to 50% | < 40% | B (a % degradation value of equal to or more than 25% and less than 50% (25%≤value<50%)) | 1 to 2 | 30 to 50% | B (a % degradation value of equal to or more than 25% and less than 50% (25%≤value<50%)) | – |
| Cc1ccc(NCC(=O)NCc2ccc3c(c2)CN([C@H]2CCCC(=O)NC2=O)C3=O)cc1Cl [Compound 12] | < 30% | – | C (a % degradation value of equal to or more than 50% and less than 75% (50%≤value<75%)) | 1 to 2 | < 30% | – | – |
| Cc1ccc(NC(C)C(=O)NCc2ccc3c(c2)CN(C2CCC(=O)NC2=O)C3=O)cc1Cl (centres unmarked) [Compound 15, 2-((3-chloro-4-methylphenyl)amino)-N-((2-(2,6-dioxopiperidin-3-yl)-1-oxoisoindolin-5-yl)methyl)propanamide] | – | – | – | 1 to 2 | – | – | – |
| Cc1ccc(NCC(=O)NCc2ccc3c(c2)C(=O)N(C2CCC(=O)NC2=O)C3=O)cc1Cl (centres unmarked) [Compound 19, 2-((3-chloro-4-methylphenyl)amino)-N-((2-(2,6-dioxopiperidin-3-yl)-1,3-dioxoisoindolin-5-yl)methyl)acetamide] | – | 60 to 90% | D (a % degradation value of equal to or more than 75% (value≥75%)) | ≤ 1 | 30 to 50% | B (a % degradation value of equal to or more than 25% and less than 50% (25%≤value<50%)) | – |
| O=C(CNc1ccc(N2CCOCC2)c(Cl)c1)NCc1ccc2c(c1)CN(C1CCC(=O)NC1=O)C2=O (centres unmarked) [Compound 22, 2-((3-chloro-4-morpholinophenyl)amino)-N-((2-(2,6-dioxopiperidin-3-yl)-1-oxoisoindolin-5-yl)methyl)acetamide] | 50 to 75% | – | – | 2 to 3 | 50 to 75% | – | – |
| Cc1cc(NCC(=O)NCc2ccc3c(c2)CN(C2CCC(=O)NC2=O)C3=O)ccc1N1CCOCC1 (centres unmarked) [Compound 23, N-((2-(2,6-dioxopiperidin-3-yl)-1-oxoisoindolin-5-yl)methyl)-2-((3-methyl-4-morpholinophenyl)amino)acetamide] | 30 to 50% | 40 to 60% | B (a % degradation value of equal to or more than 25% and less than 50% (25%≤value<50%)) | 1 to 2 | 30 to 50% | C (a % degradation value of equal to or more than 50% and less than 75% (50%≤value<75%)) | – |
| CN(C)Cc1ccc(NCC(=O)NCc2ccc3c(c2)CN(C2CCC(=O)NC2=O)C3=O)cc1Cl (centres unmarked) [Compound 26] | – | – | C (a % degradation value of equal to or more than 50% and less than 75% (50%≤value<75%)) | – | – | – | C (a % degradation value of equal to or more than 50% and less than 75% (50%≤value<75%)) |

Reference: patent US11400084B2 (BioTheryX, Inc., priority 2018, dated 2022)
